Drawing on PubChem BioAssay AID330 (DTP/NCI, 2004), this text covers T/C for 19 molecules.

Molecules are shown by their SMILES. “And” between values parts separate entries of the source, which are not always exact repeats. Equal entries are not always repeated. Toxic doses and inconclusive results are not listed.

For this experiment, the system named is P388 leukemia ip, CD2F1 mice, survival T/C. The experiment in a line: NCI In Vivo Anticancer Drug Screen. Data for tumor model P388 Leukemia (intraperitoneal) in CD2F1 (CDF1) mice. The conditions noted are these: endpoint: median survival time, higher = longer survival. The essentials:
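Mice carrying the transplanted tumor received test compound or vehicle. Survival was recorded in each group, and the value is the treated-group measurement divided by that of the vehicle-treated control group.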

[1] abbreviates: dose: 50.0 mg/kg/injection, schedule: Q01DX005 (ip), vehicle: Klucel (hydroxypropylcellulose) (HPC).
Setting [2] is: dose: 100.0 mg/kg/injection, schedule: Q01DX005 (ip), vehicle: Klucel (hydroxypropylcellulose) (HPC).
The mark [3] stands for this setting: dose: 200.0 mg/kg/injection, schedule: Q01DX005 (ip), vehicle: Klucel (hydroxypropylcellulose) (HPC).
Setting [4] is: dose: 50.0 mg/kg/injection, schedule: Q01DX009 (ip), vehicle: saline with Tween-80.
[5] abbreviates: dose: 100.0 mg/kg/injection, schedule: Q01DX009 (ip), vehicle: saline with Tween-80.
Setting [6] is: dose: 200.0 mg/kg/injection, schedule: Q01DX009 (ip), vehicle: saline with Tween-80.
[7] abbreviates: dose: 25.0 mg/kg/injection, schedule: Q01DX009 (ip), vehicle: saline with Tween-80.
Where [8] appears, read: dose: 60.0 mg/kg/injection, schedule: Q01DX005 (ip), vehicle: Klucel (hydroxypropylcellulose) (HPC).
The mark [9] stands for this setting: dose: 240.0 mg/kg/injection, schedule: Q01DX005 (ip), vehicle: Klucel (hydroxypropylcellulose) (HPC).

In the case of `COc1cc2c[n+](C)c3c4cc(OC)c(OC)cc4c(O)cc3c2cc1OC`, the T/C is 99 % of control under setting [1], 97 % of control under setting [2] and 99 % of control under setting [3].
Consider `COc1cc(C[C@@H](CO)[C@H](CO)Cc2ccc3c(c2)OCO3)cc(OC)c1OC`, for which the T/C is 101 % of control (dose: 6.25 mg/kg/injection, schedule: Q04DX002 (ip), vehicle: saline with Tween-80); 101 % of control (dose: 12.5 mg/kg/injection, schedule: Q04DX002 (ip), vehicle: saline with Tween-80); 93 % of control (dose: 25.0 mg/kg/injection, schedule: Q04DX002 (ip), vehicle: saline with Tween-80).
Regarding `Cc1cc(Cl)ccc1N=Cc1ccc(OCc2ccccc2)cc1`, the T/C reads like this: under setting [4], 92 % of control; under setting [5], 90 % of control; under setting [6], 88 % of control.
Regarding `Cc1cc([N+](=O)[O-])cc(Br)c1N`, the T/C was 100 % of control (dose: 100.0 mg/kg/injection, schedule: Q01DX001 (ip), vehicle: saline with Tween-80); 95 % of control (dose: 200.0 mg/kg/injection, schedule: Q01DX001 (ip), vehicle: saline with Tween-80); 95 % of control (dose: 400.0 mg/kg/injection, schedule: Q01DX001 (ip), vehicle: saline with Tween-80).
On to `COc1ccc(C2=C(c3ccccc3)C(=O)C3(c4ccccc4)CC23c2ccc(OC)cc2)cc1` (stereo unspecified), for which the T/C was 97 % of control under setting [1], 89 % of control under setting [2] and 92 % of control under setting [3].
Regarding `C/C=C/C=C\C=C/C(O)CC(OP(=O)(O)O)C(C)(O)/C=C/C1CC=CC(=O)O1` (stereo unspecified), the T/C is, setting by setting: (dose: 0.75 mg/kg/injection, schedule: Q01DX005 (ip), vehicle: water) 116 % of control; (dose: 1.5 mg/kg/injection, schedule: Q01DX005 (ip), vehicle: water) 119 % of control; (dose: 6.25 mg/kg/injection, schedule: Q01DX005 (ip), vehicle: water) 183 % of control.
Regarding `Cc1cc(OC(=O)c2c(-c3ccccc3)noc2C)n(-c2ccc(NC(=O)c3c(-c4ccccc4)noc3C)cc2)n1`, the T/C (dose: 50.0 mg/kg/injection, schedule: Q01DX009 (ip), vehicle: saline) was 96 % of control; the T/C (dose: 100.0 mg/kg/injection, schedule: Q01DX009 (ip), vehicle: saline) is 100 % of control; the T/C (dose: 200.0 mg/kg/injection, schedule: Q01DX009 (ip), vehicle: saline) was 101 % of control.
Turning to `O=C1/C(=C\c2ccc([N+](=O)[O-])cc2)CS(=O)(=O)C/C1=C/c1ccc([N+](=O)[O-])cc1`, the T/C is 95 % of control under setting [7], 94 % of control under setting [4], 105 % of control under setting [5] and 116 % of control under setting [6].
Turning to `Cc1cccc(N2CCN(C(=O)/C(=C/c3ccccc3)NC(=O)c3ccccc3)CC2)c1`, the T/C is 93 % of control (dose: 50.0 mg/kg/injection, schedule: Q01DX005 (ip), vehicle: saline with Tween-80) and 89 % of control (dose: 100.0 mg/kg/injection, schedule: Q01DX005 (ip), vehicle: saline with Tween-80).
On to `C[N+](C)(Cn1nc(Cl)c2cc([N+](=O)[O-])ccc21)Cn1nc(Cl)c2cc([N+](=O)[O-])ccc21`, for which the T/C is 93 % of control (dose: 50.0 mg/kg/injection, schedule: Q04DX003 (ip), vehicle: saline with Tween-80) and 88 % of control (dose: 200.0 mg/kg/injection, schedule: Q04DX003 (ip), vehicle: saline with Tween-80).
Consider `COc1ccc2c(C#N)cc3c(c[n+](C)c4ccccc34)c2c1`, for which the T/C reads like this: (dose: 12.5 mg/kg/injection, schedule: Q04DX003 (ip), vehicle: distilled water + Tween-80) 105 % of control; (dose: 25.0 mg/kg/injection, schedule: Q04DX003 (ip), vehicle: distilled water + Tween-80) 115 % of control.
On to `CCC(C)/C(=C\C#N)NCCCCCCN/C(=C/C#N)C(C)CC` (stereo unspecified), for which the T/C (dose: 15.0 mg/kg/injection, schedule: Q01DX005 (ip), vehicle: Klucel (hydroxypropylcellulose) (HPC)) was 95 % of control; the T/C (dose: 30.0 mg/kg/injection, schedule: Q01DX005 (ip), vehicle: Klucel (hydroxypropylcellulose) (HPC)) is 86 % of control; the T/C under setting [8] is 90 % of control; the T/C under setting [9] is 91 % of control.
For the molecule `CCOC(CCl)(NC(C)=O)C(=O)OC` (stereo unspecified), the T/C by setting is: (dose: 100.0 mg/kg/injection, schedule: Q01DX001 (ip), vehicle: Klucel (hydroxypropylcellulose) (HPC)) 104 % of control; (dose: 200.0 mg/kg/injection, schedule: Q01DX001 (ip), vehicle: Klucel (hydroxypropylcellulose) (HPC)) 100 % of control; (dose: 400.0 mg/kg/injection, schedule: Q01DX001 (ip), vehicle: Klucel (hydroxypropylcellulose) (HPC)) 106 % of control.
For `CCC(c1ccc(OCC(=O)OCCNCCCl)cc1)C(CC)c1ccc(OCC(=O)OCCNCCCl)cc1` (stereo unspecified), the T/C runs as follows: (dose: 25.0 mg/kg/injection, schedule: Q04DX002 (ip), vehicle: saline) 101 % of control; (dose: 50.0 mg/kg/injection, schedule: Q04DX002 (ip), vehicle: saline) 97 % of control; (dose: 100.0 mg/kg/injection, schedule: Q04DX002 (ip), vehicle: saline) 101 % of control; (dose: 100.0 mg/kg/injection, schedule: Q04DX002 (ip), vehicle: suspension in saline) 97 % of control; (dose: 200.0 mg/kg/injection, schedule: Q04DX002 (ip), vehicle: suspension in saline) 87 % of control.
With `CCCCCCCCCCCCCCCCCC(=O)NC(Cc1ccc(N(CCCl)CCCl)cc1)C(=O)O` (stereo unspecified), the T/C is 159 % of control (dose: 1.88 mg/kg/injection, schedule: Q01DX009 (ip), vehicle: saline); 172 % of control (dose: 3.75 mg/kg/injection, schedule: Q01DX009 (ip), vehicle: saline); 155 % of control (dose: 3.75 mg/kg/injection, schedule: Q03HX008 (ip), vehicle: saline); 236 % of control (dose: 7.5 mg/kg/injection, schedule: Q01DX009 (ip), vehicle: saline); 190 % of control (dose: 7.5 mg/kg/injection, schedule: Q03HX008 (ip), vehicle: saline); 277 % of control (dose: 15.0 mg/kg/injection, schedule: Q01DX009 (ip), vehicle: saline). Also, the T/C (dose: 15.0 mg/kg/injection, schedule: Q03HX008 (ip), vehicle: saline) is 225 % of control.
In the case of `ClCCN(CCCl)c1ccc(/C=N/Nc2ccnc3ccccc23)cc1`, the T/C runs as follows: (dose: 0.39 mg/kg/injection, schedule: Q01DX009 (ip), vehicle: DMSO) 92 % of control; (dose: 0.78 mg/kg/injection, schedule: Q01DX009 (ip), vehicle: DMSO) 87 % of control; (dose: 1.56 mg/kg/injection, schedule: Q01DX009 (ip), vehicle: DMSO) 90 % of control.
Regarding `[CH3][Sn]([Cl])([Cl])[c]1ccccc1`, the T/C reads like this: (dose: 1.56 mg/kg/injection, schedule: Q04DX003 (ip), vehicle: saline) 114 % of control; (dose: 3.12 mg/kg/injection, schedule: Q04DX003 (ip), vehicle: saline) 109 % of control; (dose: 6.25 mg/kg/injection, schedule: Q04DX003 (ip), vehicle: saline) 106 % of control and 117 % of control.
For the molecule `Cc1cc(C2=NCC(C)S2)ccc1OCCSCCOc1ccc(C2=NCC(C)S2)cc1C` (stereo unspecified), the T/C (dose: 12.5 mg/kg/injection, schedule: Q01DX009 (ip), vehicle: saline with Tween-80) was 92 % of control and the T/C under setting [7] is 92 % of control.
Regarding `COC(=O)C(Cc1cn(C(O)(NC(=O)OCc2ccccc2)C(F)(F)F)cn1)NC(=O)C(NC(=O)C(CC(C)C)NC(=O)C(CSC(c1ccccc1)(c1ccccc1)c1ccccc1)NC(=O)OCc1ccccc1)C(C)C` (stereo unspecified), the T/C runs as follows: under setting [8], 91 % of control; (dose: 120.0 mg/kg/injection, schedule: Q01DX005 (ip), vehicle: Klucel (hydroxypropylcellulose) (HPC)) 110 % of control; under setting [9], 96 % of control.
